Experimental findings from patent US10336762B2 (priority 2017, dated 2019) are described below.

Read-outs that look alike come from different tables or passages of the source.

One experiment has as its system TNFα. As to the kind of experiment: cells. It is filed as cell-based, human. The settings on record: Homo sapiens, Monocyte, LPS-stimulated human monocytes, read-out: EC50 TNF.
In the next experiment the target is IRAK4 enzyme (Homo sapiens (Human), UniProt Q9NWZ3). As to the kind of experiment: biochemical. It is filed as biochemical. The settings on record: IRAK4 enzyme, 500 μM ATP.
IRAK4 enzyme, sequence (Q9NWZ3 whole entry): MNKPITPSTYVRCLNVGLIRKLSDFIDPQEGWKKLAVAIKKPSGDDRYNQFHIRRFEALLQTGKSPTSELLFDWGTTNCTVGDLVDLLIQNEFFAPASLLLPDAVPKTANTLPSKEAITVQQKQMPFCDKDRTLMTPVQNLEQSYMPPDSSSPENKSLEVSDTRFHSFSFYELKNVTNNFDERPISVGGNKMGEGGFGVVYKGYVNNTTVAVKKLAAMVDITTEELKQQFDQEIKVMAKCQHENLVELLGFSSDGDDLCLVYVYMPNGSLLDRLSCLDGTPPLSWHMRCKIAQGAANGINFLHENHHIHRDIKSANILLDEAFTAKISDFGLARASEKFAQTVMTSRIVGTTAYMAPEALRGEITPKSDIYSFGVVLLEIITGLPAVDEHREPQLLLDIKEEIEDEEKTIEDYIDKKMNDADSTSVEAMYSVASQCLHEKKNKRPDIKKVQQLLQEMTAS

In general, EC50 refers to the concentration that produces a half-maximal response. A word on the IC50: it is the concentration at which inhibition is half-maximal. A higher IC50 goes with lower potency. Consider `COCc1cncc(Nc2cc(-c3ccc4cc(C#N)cnn34)ncc2C(=O)NC[C@@H](F)C(C)(C)O)c1` [Example 784, (R)-6-(3-cyanopyrrolo[1,2-b]pyridazin-7-yl)-N-(2-fluoro-3-hydroxy-3-methylbutyl)-4-((5-(methoxymethyl)pyridin-3-yl)amino)nicotinamide], for which, in the experiment on TNFα (TNFα content), the EC50 was found to be 40 nM. This compound had an IC50 at IRAK4 enzyme (TR-FRET (HTRF)) of under 1 nM.
For `N#Cc1cnn2c(-c3cc(NC45CCC(O)(CC4)CC5)c(C(=O)NCC(=O)N4CCOCC4)cn3)ccc2c1` [Example 785, 6-(3-cyanopyrrolo[1,2-b]pyridazin-7-yl)-4-((4-hydroxybicyclo[2.2.2]octan-1-yl)amino)-N-(2-morpholino-2-oxoethyl)nicotinamide], in that order: 23 nM and under 1 nM.
Taken in the same sequence, the figures for `COCCNC(=O)CNC(=O)c1cnc(-c2ccc3cc(C#N)cnn23)cc1NC12CCC(O)(CC1)CC2` [Example 786, 6-(3-cyanopyrrolo[1,2-b]pyridazin-7-yl)-4-((4-hydroxybicyclo[2.2.2]octan-1-yl)amino)-N-(2-((2-methoxyethyl)amino)-2-oxoethyl)nicotinamide] were 323 nM and 2 nM.
Taken in the same sequence, the figures for `N#Cc1cnn2c(-c3cc(NC45CCC(O)(CC4)CC5)c(C(=O)NCC(=O)N4CC(F)C4)cn3)ccc2c1` [Example 787, 6-(3-cyanopyrrolo[1,2-b]pyridazin-7-yl)-N-(2-(3-fluoroazetidin-1-yl)-2-oxoethyl)-4-((4-hydroxybicyclo[2.2.2]octan-1-yl)amino) nicotinamide] were 79 nM and under 1 nM.
In the case of `CNC(=O)NC[C@H]1C[C@H](Nc2cc(-c3ccc4cc(C#N)cnn34)ncc2C(=O)NC[C@@H](F)C(C)(C)O)C1` [Example 788, 6-(3-cyanopyrrolo[1,2-b]pyridazin-7-yl)-N-((R)-2-fluoro-3-hydroxy-3-methylbutyl)-4-(((1r,3R)-3-((3-methylureido)methyl)cyclobutyl)amino) nicotinamide], the 50% effective concentration (EC50) in the experiment on TNFα (TNFα content) was found to be 90 nM. The compound further displayed a 50% inhibitory concentration (IC50) on IRAK4 enzyme (TR-FRET (HTRF)) of under 1 nM.
For `CN1CCN(C(=O)CNC(=O)c2cnc(-c3ccc4cc(C#N)cnn34)cc2NC23CCC(O)(CC2)CC3)CC1` [Example 789, 6-(3-cyanopyrrolo[1,2-b]pyridazin-7-yl)-4-((4-hydroxybicyclo[2.2.2]octan-1-yl)amino)-N-(2-(4-methylpiperazin-1-yl)-2-oxoethyl)nicotinamide], in that order: 20 nM and under 1 nM.
Turning to `N#Cc1cnn2c(-c3cc(NC45CCC(O)(CC4)CC5)c(C(=O)NCC(=O)N4CCCC4)cn3)ccc2c1` [Example 790, 6-(3-cyanopyrrolo[1,2-b]pyridazin-7-yl)-4-((4-hydroxybicyclo[2.2.2]octan-1-yl)amino)-N-(2-oxo-2-(pyrrolidin-1-yl)ethyl)nicotinamide], the concentration giving a half-maximal response (EC50) in the experiment with TNFα (TNFα content) stood at 21 nM. Also, the half-maximal inhibitory concentration (IC50) at IRAK4 enzyme (TR-FRET (HTRF)) was under 1 nM.
Turning to `COC1CN(C(=O)CNC(=O)c2cnc(-c3ccc4cc(C#N)cnn34)cc2NC23CCC(O)(CC2)CC3)C1` [Example 791, 6-(3-cyanopyrrolo[1,2-b]pyridazin-7-yl)-4-((4-hydroxybicyclo[2.2.2]octan-1-yl)amino)-N-(2-(3-methoxyazetidin-1-yl)-2-oxoethyl)nicotinamide], in the experiment with TNFα (TNFα content), the EC50 was 45 nM. The compound further showed a 50% inhibitory concentration (IC50) against IRAK4 enzyme (TR-FRET (HTRF)) of 1 nM.
With `N#Cc1cnn2c(-c3cc(NC45CCC(O)(CC4)CC5)c(C(=O)NCC(=O)N4CCCCC4)cn3)ccc2c1` [Example 792, 6-(3-cyanopyrrolo[1,2-b]pyridazin-7-yl)-4-((4-hydroxybicyclo[2.2.2]octan-1-yl)amino)-N-(2-oxo-2-(piperidin-1-yl)ethyl)nicotinamide], in the experiment on TNFα (TNFα content), the concentration giving a half-maximal response (EC50) was 86 nM. For the same compound, the half-maximal inhibitory concentration (IC50) against IRAK4 enzyme (TR-FRET (HTRF)) worked out at 2 nM.
For `CN1CCN(C(=O)NC[C@H]2C[C@H](Nc3cc(-c4ccc5cc(C#N)cnn45)ncc3C(=O)NC[C@@H](F)C(C)(C)O)C2)CC1` [Example 793, N-(((1R,3r)-3-((2-(3-cyanopyrrolo[1,2-b]pyridazin-7-yl)-5-(((R)-2-fluoro-3-hydroxy-3-methylbutyl)carbamoyl)pyridin-4-yl)amino)cyclobutyl)methyl)-4-methylpiperazine-1-carboxamide], the concentration giving a half-maximal response (EC50) in the experiment on TNFα (TNFα content) stood at 598 nM. Also, inhibition on IRAK4 enzyme (TR-FRET (HTRF)) was half-maximal at 3 nM (IC50).
For `CN1CCC(C(=O)NC[C@H]2C[C@H](Nc3cc(-c4ccc5cc(C#N)cnn45)ncc3C(=O)NC[C@@H](F)C(C)(C)O)C2)CC1` [Example 794, 6-(3-cyanopyrrolo[1,2-b]pyridazin-7-yl)-N-((R)-2-fluoro-3-hydroxy-3-methylbutyl)-4-(((1r,3R)-3-((1-methylpiperidine-4-carboxamido)methyl)cyclo-butyl)amino)nicotinamide], in that order: 997 nM and 2 nM.
For `CN1CC(C(=O)NC[C@H]2C[C@H](Nc3cc(-c4ccc5cc(C#N)cnn45)ncc3C(=O)NC[C@@H](F)C(C)(C)O)C2)C1` [Example 795, 6-(3-cyanopyrrolo[1,2-b]pyridazin-7-yl)-N-((R)-2-fluoro-3-hydroxy-3-methylbutyl)-4-(((1r,3R)-3-((1-methylazetidine-3-carboxamido)methyl)cyclobutyl)amino) nicotinamide], in that order: over 10000 nM and 7 nM.
Taken in the same sequence, the figures for `N#Cc1cnn2c(-c3cc(NC45CCC(O)(CC4)CC5)c(C(=O)NCC(=O)N4CCN(C5COC5)CC4)cn3)ccc2c1` [Example 796, 6-(3-cyanopyrrolo[1,2-b]pyridazin-7-yl)-4-((4-hydroxybicyclo[2.2.2]octan-1-yl)amino)-N-(2-(4-(oxetan-3-yl)piperazin-1-yl)-2-oxoethyl)nicotinamide] were 75 nM and 2 nM.
On to `CC1(F)CN(C(=O)CNC(=O)c2cnc(-c3ccc4cc(C#N)cnn34)cc2NC23CCC(O)(CC2)CC3)C1` [Example 797, 6-(3-cyanopyrrolo[1,2-b]pyridazin-7-yl)-N-(2-(3-fluoro-3-methyl-azetidin-1-yl)-2-oxoethyl)-4-((4-hydroxybicyclo[2.2.2]octan-1-yl)amino) nicotinamide], for which the 50% effective concentration (EC50) in the experiment on TNFα (TNFα by TR-FRET) was determined as 38 nM. Moreover, half-maximal inhibition against IRAK4 enzyme (TR-FRET) (IC50) required 1 nM.
Turning to `N#Cc1cnn2c(-c3cc(NC45CCC(O)(CC4)CC5)c(C(=O)NCC(=O)N4CCC(F)(F)C4)cn3)ccc2c1` [Example 798, 6-(3-cyanopyrrolo[1,2-b]pyridazin-7-yl)-N-(2-(3,3-difluoropyrrolidin-1-yl)-2-oxoethyl)-4-((4-hydroxybicyclo[2.2.2]octan-1-yl)amino) nicotinamide], the EC50 with TNFα (TNFα by TR-FRET) stood at 42 nM. For the same compound, the midpoint of inhibition against IRAK4 enzyme (TR-FRET), the IC50, lay at 1 nM.
`N#Cc1cnn2c(-c3cc(NC45CCC(O)(CC4)CC5)c(C(=O)NCC(=O)N4CCC5(COC5)C4)cn3)ccc2c1` [Example 799, 6-(3-cyanopyrrolo[1,2-b]pyridazin-7-yl)-4-((4-hydroxybicyclo[2.2.2]octan-1-yl)amino)-N-(2-oxo-2-(2-oxa-6-azaspiro[3.4]octan-6-yl)ethyl)nicotinamide]: the EC50 in the experiment on TNFα (TNFα by TR-FRET) was 62 nM. The compound further returned a half-maximal inhibitory concentration (IC50) against IRAK4 enzyme (TR-FRET) of under 1 nM.
In the case of `N#Cc1cnn2c(-c3cc(NC45CCC(O)(CC4)CC5)c(C(=O)NCC(=O)N4CC5(COC5)C4)cn3)ccc2c1` [Example 800, 6-(3-cyanopyrrolo[1,2-b]pyridazin-7-yl)-4-((4-hydroxybicyclo[2.2.2]octan-1-yl)amino)-N-(2-oxo-2-(2-oxa-6-azaspiro[3.3]heptan-6-yl)ethyl)nicotinamide], in the experiment on TNFα (TNFα by TR-FRET), the EC50 was 133 nM. Besides, the IC50 on IRAK4 enzyme (TR-FRET) amounted to 3 nM.
For `CCOC(=O)CCNC(=O)c1cnc(-c2ccc3cc(C#N)cnn23)cc1NC12CCC(O)(CC1)CC2` [Example 801, ethyl 3-(6-(3-cyano-pyrrolo[1,2-b]pyridazin-7-yl)-4-((4-hydroxy-bicyclo[2.2.2]octan-1-yl)amino)nicotinamido) propanoate], in that order: 57 nM and 1 nM.
On to `CN1CCN(C(=O)C23CCC(Nc4cc(-c5ccc6cc(C#N)cnn56)ncc4C(=O)NC[C@@H](F)C(C)(C)O)(CC2)CC3)CC1` [Example 802, (R)-6-(3-cyanopyrrolo[1,2-b]pyridazin-7-yl)-N-(2-fluoro-3-hydroxy-3-methylbutyl)-4-((4-(4-methylpiperazine-1-carbonyl)bicyclo[2.2.2]octan-1-yl)amino) nicotinamide], for which the EC50 with TNFα (TNFα by TR-FRET) stood at 157 nM. The compound also came in with an IC50 on IRAK4 enzyme (TR-FRET) of 2 nM.
For `CNC(=O)CCNC(=O)c1cnc(-c2ccc3cc(C#N)cnn23)cc1NC12CCC(O)(CC1)CC2` [Example 803, 6-(3-cyanopyrrolo[1,2-b]pyridazin-7-yl)-4-((4-hydroxybicyclo[2.2.2]octan-1-yl)amino)-N-(3-(methylamino)-3-oxopropyl)nicotinamide], in that order: 327 nM and 1 nM.
Take `CN(C)C(=O)CCNC(=O)c1cnc(-c2ccc3cc(C#N)cnn23)cc1NC12CCC(O)(CC1)CC2` [Example 804, 6-(3-cyanopyrrolo[1,2-b]pyridazin-7-yl)-N-(3-(dimethylamino)-3-oxo-propyl)-4-((4-hydroxy-bicyclo[2.2.2]octan-1-yl)amino)nicotinamide]: the EC50 with TNFα (TNFα by TR-FRET) amounted to 48 nM. Moreover, the half-maximal inhibitory concentration (IC50) against IRAK4 enzyme (TR-FRET) is under 1 nM.
Taken in the same sequence, the figures for `N#Cc1cnn2c(-c3cc(NC45CCC(O)(CC4)CC5)c(C(=O)NCCC(=O)N4CC(F)(F)C4)cn3)ccc2c1` [Example 805, 6-(3-cyanopyrrolo[1,2-b]pyridazin-7-yl)-N-(3-(3,3-difluoroazetidin-1-yl)-3-oxopropyl)-4-((4-hydroxybicyclo[2.2.2]octan-1-yl)amino) nicotinamide] were 129 nM and under 1 nM.
Turning to `CN1CCN(C(=O)CCNC(=O)c2cnc(-c3ccc4cc(C#N)cnn34)cc2NC23CCC(O)(CC2)CC3)CC1` [Example 806, 6-(3-cyanopyrrolo[1,2-b]pyridazin-7-yl)-4-((4-hydroxybicyclo[2.2.2]octan-1-yl)amino)-N-(3-(4-methylpiperazin-1-yl)-3-oxopropyl)nicotinamide], the EC50 in the experiment with TNFα (TNFα by TR-FRET) was found to be 349 nM. Besides, the IC50 at IRAK4 enzyme (TR-FRET) stood at 3 nM.
